Tests used:
Assay type in all cases: biochemical
PDGFRα tyrosine kinase = biological target: T1, PDGFRα tyrosine kinase (Homo sapiens, UniProt P16234); assay: In vitro enzyme assay (ELISA), Test (a), PDGFRα; details: ATP 14 μM, read-out: IC50 versus PDGFRα tyrosine kinase
T1 construct: PDGFRα, PDGFRβ and KDR receptor cytoplasmic domains, obtained by expression of recombinant protein in insect cells; purchased Upstate Biotechnology Inc. 14-467; host or cells: Sf9 insect cells
Experimental: (§1) The ability of test compounds to inhibit the phosphorylation of a tyrosine containing polypeptide substrate by the tyrosine kinase enzymes PDGFRα, PDGFRβ and KDR was assessed using conventional ELISA assays. DNA encoding the PDGFRα, PDGFRβ or KDR receptor cytoplasmic domains may be obtained by total gene synthesis (International Biotechnology Lab., 1987, 5(3), 19-25) or by cloning. The DNA fragments may be expressed in a suitable expression system to obtain polypeptide with tyrosine kinase activity. For example, PDGFRα, PDGFRβ and KDR receptor cytoplasmic domains, obtained by expression of recombinant protein in insect cells, can be shown to display intrinsic tyrosine kinase activity. In the case of the VEGF receptor KDR (Genbank Accession No. L04947), a DNA fragment encoding most of the cytoplasmic domain, commencing with methionine 806 and including the termination codon may be cloned into a baculovirus transplacement vector [for example pAcYM1 (see The Baculovirus Expression System: A Laboratory Guide, L. A. King and R. D. Possee, Chapman and Hall, 1992) or pAc360 or pBlueBacHis (available from Invitrogen Corporation)]. This recombinant construct may be co-transfected into insect cells [for example Spodoptera frugiperda 21(Sf21) or Spodoptera frugiperda 9(Sf9)] with viral DNA (for example Pharmingen BaculoGold) to prepare recombinant baculovirus. […]

PDGFRβ tyrosine kinase = biological target: T2, PDGFRβ tyrosine kinase (Homo sapiens, UniProt P09619); assay: In vitro enzyme assay (ELISA), Test (a), PDGFRβ; details: ATP 2.8 μM, read-out: IC50 versus PDGFRβ tyrosine kinase
T2 construct: PDGFRα, PDGFRβ and KDR receptor cytoplasmic domains, obtained by expression of recombinant protein in insect cells; purchased Upstate Biotechnology Inc. 14-463; host or cells: Sf9 insect cells
T2 sequence (P09619 554-1106 limits assumed): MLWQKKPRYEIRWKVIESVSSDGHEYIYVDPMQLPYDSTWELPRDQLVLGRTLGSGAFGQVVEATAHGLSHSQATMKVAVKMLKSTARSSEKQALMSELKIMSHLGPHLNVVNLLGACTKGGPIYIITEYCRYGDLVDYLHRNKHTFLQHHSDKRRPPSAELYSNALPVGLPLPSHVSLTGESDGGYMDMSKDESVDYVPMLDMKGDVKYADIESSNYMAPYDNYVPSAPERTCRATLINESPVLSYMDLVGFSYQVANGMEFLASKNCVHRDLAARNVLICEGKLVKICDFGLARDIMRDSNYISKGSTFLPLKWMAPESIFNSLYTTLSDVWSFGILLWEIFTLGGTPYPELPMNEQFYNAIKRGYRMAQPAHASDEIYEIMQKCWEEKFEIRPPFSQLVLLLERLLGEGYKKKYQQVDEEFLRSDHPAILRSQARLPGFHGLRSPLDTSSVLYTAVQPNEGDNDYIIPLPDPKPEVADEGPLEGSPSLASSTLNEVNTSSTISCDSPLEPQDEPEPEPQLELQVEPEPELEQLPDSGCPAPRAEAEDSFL
Experimental: as §1

KDR tyrosine kinase = biological target: T3, KDR tyrosine kinase (Homo sapiens, UniProt P35968); assay: In vitro enzyme assay (ELISA), Test (a), KDR; details: ATP 8 μM, read-out: IC50 versus KDR tyrosine kinase
T3 construct: a DNA fragment encoding most of the cytoplasmic domain, commencing with methionine 806 and including the termination codon; made in house; host or cells: Sf9 insect cells (recombinant baculovirus)
T3 sequence (P35968 786-1356 limits assumed): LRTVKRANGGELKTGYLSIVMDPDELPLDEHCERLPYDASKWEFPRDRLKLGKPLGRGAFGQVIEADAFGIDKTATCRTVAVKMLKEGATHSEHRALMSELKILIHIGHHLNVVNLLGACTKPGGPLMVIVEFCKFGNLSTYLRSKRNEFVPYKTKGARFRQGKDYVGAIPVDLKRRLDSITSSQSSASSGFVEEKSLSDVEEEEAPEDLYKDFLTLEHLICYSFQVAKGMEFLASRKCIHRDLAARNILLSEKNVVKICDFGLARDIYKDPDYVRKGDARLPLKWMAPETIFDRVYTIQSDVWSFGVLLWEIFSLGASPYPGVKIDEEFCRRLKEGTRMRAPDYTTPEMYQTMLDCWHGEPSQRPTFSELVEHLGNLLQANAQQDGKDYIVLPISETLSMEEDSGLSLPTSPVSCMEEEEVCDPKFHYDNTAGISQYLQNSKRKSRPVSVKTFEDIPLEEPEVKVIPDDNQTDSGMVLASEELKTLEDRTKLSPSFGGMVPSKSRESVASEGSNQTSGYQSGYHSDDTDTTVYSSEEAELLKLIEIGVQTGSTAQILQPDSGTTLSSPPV
Experimental: The ability of test compounds to inhibit the phosphorylation of a tyrosine containing polypeptide substrate by the tyrosine kinase enzymes PDGFRα, PDGFRβ and KDR was assessed using conventional ELISA assays. DNA encoding the PDGFRα, PDGFRβ or KDR receptor cytoplasmic domains may be obtained by total gene synthesis (International Biotechnology Lab., 1987, 5(3), 19-25) or by cloning. The DNA fragments may be expressed in a suitable expression system to obtain polypeptide with tyrosine kinase activity. For example, PDGFRα, PDGFRβ and KDR receptor cytoplasmic domains, obtained by expression of recombinant protein in insect cells, can be shown to display intrinsic tyrosine kinase activity. In the case of the VEGF receptor KDR (Genbank Accession No. L04947), a DNA fragment encoding most of the cytoplasmic domain, commencing with methionine 806 and including the termination codon may be cloned into a baculovirus transplacement vector [for example pAcYM1 (see The Baculovirus Expression System: A Laboratory Guide, L. A. King and R. D. Possee, Chapman and Hall, 1992) or pAc360 or pBlueBacHis (available from Invitrogen Corporation)]. This recombinant construct may be co-transfected into insect cells [for example Spodoptera frugiperda 21(Sf21) or Spodoptera frugiperda 9(Sf9)] with viral DNA (for example Pharmingen BaculoGold) to prepare recombinant baculovirus. Details of the methods for the assembly of recombinant DNA molecules and the preparation and use of recombinant baculovirus can be found in standard texts, for example Sambrook et al., 1989, Molecular cloning—A Laboratory Manual, 2nd edition, Cold Spring Harbour Laboratory Press and O'Reilly et al., 1992, Baculovirus Expression Vectors—A Laboratory Manual, W. H. Freeman and Co, New York).
For expression, Sf9 cells were infected with plaque-pure KDR recombinant virus and harvested 48 hours later. […]

T1 sequence (P16234 550-1089 limits assumed): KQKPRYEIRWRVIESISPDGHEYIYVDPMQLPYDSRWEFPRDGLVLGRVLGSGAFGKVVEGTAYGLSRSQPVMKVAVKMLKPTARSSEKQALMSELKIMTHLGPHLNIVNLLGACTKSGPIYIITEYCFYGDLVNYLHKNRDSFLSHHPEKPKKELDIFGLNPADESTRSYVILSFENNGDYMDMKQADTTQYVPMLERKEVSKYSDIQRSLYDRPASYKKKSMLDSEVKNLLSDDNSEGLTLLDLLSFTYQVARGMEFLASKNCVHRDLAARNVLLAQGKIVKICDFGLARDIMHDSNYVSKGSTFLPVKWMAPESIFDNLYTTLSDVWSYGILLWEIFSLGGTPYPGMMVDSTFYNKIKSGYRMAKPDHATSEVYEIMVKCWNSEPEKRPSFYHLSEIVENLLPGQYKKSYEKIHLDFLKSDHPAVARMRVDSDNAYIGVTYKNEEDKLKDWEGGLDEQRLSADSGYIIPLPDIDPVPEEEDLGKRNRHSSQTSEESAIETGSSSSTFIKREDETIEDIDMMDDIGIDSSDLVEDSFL

Which IC50 (PDGFRα tyrosine kinase) does the source give for COc1cc2ncnc(Oc3cnn(CC(=O)Nc4cccc5c4OCO5)c3)c2cc1OC [Example 2, N-(2,3-methylenedioxyphenyl)-2-[4-(6,7-dimethoxyquinazolin-4-yloxy)pyrazol-1-yl]acetamide] here?
Its IC50 is about 100 nM.

And the IC50 (PDGFRβ tyrosine kinase)?
The IC50 was about 10 nM.

And the IC50 (KDR tyrosine kinase)?
The IC50 was about 1 nM.
